# Experimental data taken from patent US20050059639A1, “Ophthalmic compositions and method for treating eye discomfort and pain” (priority 2003, published 2005).
# Marks after values point to notes of the source that are not given here.
# Columns and labels:
# [1] = tested on: tongue of human volunteers; test: Cooling sensations when applied to the tongue of human volunteers; type: in vivo; settings: for Duration of Action: duration of the cooling action on the tongue; for Relative Potency: reciprocal of threshold, normalized to unity for analogs with 1.25 μg/ml; for Threshold: threshold for producing cooling sensations on the tongue of human volunteers
# Protocol: (§1) The therapeutic concentrations of the preferred analogs are in the range of 10 to 80 μg/ml […], but concentrations as low as 0.1 μg/ml may elicit effects in sensitive individuals.
# [2] = tested on: medial canthus of the eyelids; test: Sensory quality of the solution on the medial canthus of the eyelids / eye surface; type: in vivo, human; settings: for Sensory Quality: solution applied on the medial canthus of the eyelids
# Text: [table] In selecting a particular analog, it is desirable to have one that has a long duration of action (several hours) and minimal stinging and burning sensations. These parameters are not predicted by the cooling effect of these substances on the human tongue, but must be determined by experiment. […] Thus, the hexyl analog is the preferred therapeutic of the two. The other particularly preferred analogs that have the desired qualities of long duration of action and absence of stinging and burning effects are identified with an asterisk in Table 1.
# eye disorders = test: Estimate of ideal therapeutic eye drop concentration to relieve eye disorders; type: in vivo, human; settings: for Eye Therapy: estimate of ideal therapeutic concentration applied as eye drops to relieve eye disorders
# Protocol: as §1
# The potency of certain specific trialkyl phosphine oxides, e.g. isopropyl, sec-butyl, n-octyl-phosphine oxide, in relieving eye discomfort is exceptionally high, on the order of 0.001%. In such situations, an alternative preferred description of an effective unit dose is 0.01 mg/ml or 10 μg/ml, which is equivalent to 0.001% weight percent.
# [3] = tested on: stinging and burning sensations on the eye; test: Adjuncts to reduce stinging of trialkyl phosphine oxide eye drops; type: in vivo, human
# Protocol: I conclude that hydrocarbon polyols are useful adjuncts for preparing a therapeutic formulation of a trialkyl phosphine oxide eye drop solution.
# (§2) A 0.2% (2.0 mg/ml) disec-butyl-n-heptyl-phosphine oxide eye drop solution was prepared by adding the compound to an isotonic solution of sodium chloride, 0.65% in deionized water, monobasic potassium phosphate/sodium hydroxide buffer, preserved with disodium EDTA and benzalkonium chloride. The liquid was individually aliquoted into a ¼ oz. bottle with a Yorker spout (E.D. Luce Packaging) suitable for droplet delivery. This solution was then applied to the closed eyes of three volunteers, with two to three drops of the solution applied to each eye. The subjects complained of stinging and burning sensations on the eye surface, lasting for about 2 min. A series of six solutions were then prepared in which six different hydrocarbon polyols were added to the parent 0.2% solution. The individual additions were 1.5% sucrose, 1.5% fructose, 1.5% dextrose, 1.5% lactose, 1.5% inositol, or 0.5% carboxymethylcellulose. […] There was some tearing, but no evidence of increased eye redness from the hydrocarbon polyols and subjective complaints of discomfort were minimal.
# [4] = tested on: stinging and burning sensations on the eye; test: as above; type: in vivo, human; remark: listed apart in the source
# [5] = tested on: closed eyes of volunteers; test: Eye drops applied to medial canthus of closed eyes, kept closed about 1 min; type: in vivo, human; settings: 0.2% (2.0 mg/ml) solution, 2-3 drops, closed eyes, three volunteers
# Protocol: For trialkyl phosphine oxide eye drop solutions of this invention, I have discovered an indirect method of application as follows. The eye dropper is aimed at the medial canthus (nasal corner) of the eye, the eye is then closed, the dispenser is squeezed to emit the eye drops, and the eye kept closed for about 1 min. This method of application can substantially avoid stinging and burning sensations. Apparently, the adaptation period of about 1 min allows the sensory processes to develop tolerance to the initial stinging and burning stimuli. For example, if a 0.4 mg/ml solution of disec-butyl, n-hexyl-phosphine oxide [synonym, 1-(Di-sec-butyl-phosphinoyl)-hexane] in isotonic-buffered saline is dropped on the open eye, it causes stinging and burning for about 1 min. However, applied onto the corners of the eye, with the eyes closed for 1 min, these stinging and burning sensations are avoided. The medial canthus is preferred to the lateral canthus because the geometry of the orbit permits a longer residence time for the eye drop applied to the medial corner. Drops applied to the lateral canthus are less precisely located and rapidly dribble off the zygoma (cheekbone). A user can be instructed in this indirect method by including the instructions on packaging labels and/or inserts associated with the doses.
# The solution, as in Example 1, was then used by another three subjects with the instruction to apply the droplets to the nasal corner of the eye (medial canthus), without touching the tip of the dispenser to the eyelid surface, to let the solution seep into the eyelids and eye surface but to keep eyes closed for at least one minute. The subjects reported slight sensations of stinging when the eyes were opened, effects that lasted for less than 1 minute, followed by sensations of coolness and comfort lasting at least two hours. The experiment was then repeated, but with a higher concentration of 0.2% of disec-butyl-n-hexyl-phosphine oxide.
# as §2
Compound,Duration of Action [1],Relative Potency [1],Threshold [1],Sensory Quality [2],Eye Therapy (eye disorders),also measured
CCCCCCCCCP(=O)(CC(C)C)CC(C)C [n-C9H19 / iso-C4H9 / iso-C4H9],15 min,0.025,50 µg/mL,cool/sting,>250 µg/mL,
CCCCCCCCP(=O)(CCCCCC)CCCCCC [n-C8H17 / n-C6H13 / n-C6H13],10 min,<0.005,>250 µg/mL,cool/sting,>1500 µg/mL,
O=C(CO)[C@@H](O)[C@H](O)[C@H](O)CO [fructose],,,,,,"effect of adjunct on initial stinging sensations ([3]; added to 0.2% disec-butyl-n-heptyl-phosphine oxide solution, 1.5% (0.5% for carboxymethylcellulose)): reduce the initial stinging sensations; effect of adjunct on stinging and burning sensations of several trialkyl phosphine oxide solutions ([4]; 1 to 2% sucrose, other carbohydrates, 0.5% carboxymethylcellulose, sucralose at equivalent sweetening concentrations): substantially reduced"
CCCCCCP(=O)(C(C)C)C(C)CC (stereo not shown) [n-C6H13 / iso-C3H7 / sec-C4H0],45 min,2.5,0.5 µg/mL,cool/sting,15 µg/mL,
"OC[C@H]1O[C@H](O[C@]2(CCl)O[C@H](CCl)[C@@H](O)[C@@H]2O)[C@H](O)[C@@H](O)[C@H]1Cl [sucralose, reference compound]",,,,,,effect of adjunct on stinging and burning sensations of several trialkyl phosphine oxide solutions ([4]; in vivo): not active
"CCCCCCCCP(=O)(C(C)C)C(C)CC (stereo not shown) [n-C8H17 / iso-C3H7 / sec-C4H9, isopropyl, sec-butyl, n-octyl-phosphine oxide]",18 min,10,0.1 µg/mL,cool only,10* μg/ml,"potency in relieving eye discomfort (eye disorders; weight percent, equivalent to 10 μg/ml): ~0.001%"
CCCCCCCCP(=O)(C(C)CC)C(C)CC (stereo not shown) [n-C8H17 / sec-C4H9 / sec-C4H9],10 min,2.5,0.5 µg/mL,cool/sting,30 µg/mL,
OC[C@H]1O[C@@](CO)(O[C@H]2O[C@H](CO)[C@@H](O)[C@H](O)[C@H]2O)[C@@H](O)[C@@H]1O [sucrose],,,,,,effect of adjunct on initial stinging sensations ([3]; in vivo): reduce the initial stinging sensations; effect of adjunct on stinging and burning sensations of several trialkyl phosphine oxide solutions ([4]; in vivo): substantially reduced
CCCP(=O)(CCC)CCC(C)C [i-C5H11 / n-C3H7 / n-C3H7],5 min,<0.005,>250 µg/mL,cool/sting,>1500 µg/mL,
"CCCCCCCP(=O)(C(C)CC)C(C)CC (stereo not shown) [n-C7H15 / sec-C4H9 / sec-C4H9, disec-butyl-n-heptyl-phosphine oxide]",10 min,0.8,1.5 µg/mL,cool/sting,15 µg/mL,potency on the human tongue (comparison of the two analogs) ([1]; hexyl vs heptyl analog): about equipotent; activity in producing stinging and burning sensations relative to hexyl analog ([2]; eye surface): three times more active; duration of action on the eye surface relative to hexyl analog ([2]; eye surface): half the duration of action; duration of stinging and burning sensations on the eye surface [5]: about 2 min
"CCC(C)P(=O)(CCC(C)C)CCC(C)C (stereo not shown) [iso-C5H11 / iso-C5H11 / sec-C4H9, di-isopentyl-sec-butyl phosphine oxide]",5 min,0.06,20 µg/mL,cool/sting,>150 µg/mL,
CCCCCCP(=O)(CCC)C(C)(C)C (stereo not shown) [n-C6H13 / tert-C4H9 / n-C3H7],7.5 min,0.36,3.5 µg/mL,cool only,30* μg/ml,
CCCCCCCP(=O)(CCC(C)C)C(C)C (stereo not shown) [n-C7H15 / iso-C5H11 / iso-C3H7],5 min,1,1.25 µg/mL,cool/oily,20* μg/ml,
CCCCCCCP(=O)(CCCCCCC)C(C)(C)C [n-C7H15 / n-C7H15 / tert-C4H9],10 min,0.06,20 µg/mL,cool/sting,>150 µg/mL,
CCCCCCP(=O)(CC)CCCCCC [n-C6H13 / n-C6H13 / n-C2H5],5 min,0.06,20 µg/mL,cool/sting,>150 µg/mL,
OC[C@H]1O[C@@H](O[C@H]2[C@H](O)[C@@H](O)C(O)O[C@@H]2CO)[C@H](O)[C@@H](O)[C@H]1O (stereo partly shown) [lactose],,,,,,effect of adjunct on initial stinging sensations ([3]; in vivo): reduce the initial stinging sensations
CCCCCCP(=O)(CCC(C)C)C(C)C (stereo not shown) [n-C6H13 / iso-C5H11 / iso-C3H7],5 min,1,1.25 µg/mL,cool only,25* μg/ml,
CCCCCCCP(=O)(C(C)C)C(C)CC (stereo not shown) [n-C7H15 / iso-C3H7 / sec-C4H9],18 min,10,0.1 µg/mL,cool only,10* μg/ml,
CCCCCCP(=O)(CCCC)C(C)(C)C (stereo not shown) [n-C6H13 / tert-C4H9 / n-C4H9],5 min,0.8,1.5 µg/mL,cool only,25* μg/ml,
CCCCCP(=O)(CC)CCCCC [n-C5H11 / n-C5H11 / n-C2H5],5 min,<0.008,>150 µg/mL,cool/sting,>1000 µg/mL,
CCCCCCCCCCP(=O)(CCC(C)C)CCC(C)C [n-C10H21 / iso-C5H11 / iso-C5H11],10 min,<0.005,>250 µg/mL,cool/sting,>1500 µg/mL,
carboxymethylcellulose,,,,,,effect of adjunct on initial stinging sensations ([3]; in vivo): reduce the initial stinging sensations; effect of adjunct on stinging and burning sensations of several trialkyl phosphine oxide solutions ([4]; in vivo): substantially reduced
O[C@H]1[C@H](O)[C@@H](O)[C@H](O)[C@@H](O)[C@H]1O [inositol],,,,,,effect of adjunct on initial stinging sensations ([3]; in vivo): reduce the initial stinging sensations; effect of adjunct on stinging and burning sensations of several trialkyl phosphine oxide solutions ([4]; in vivo): substantially reduced
